Values of other authors in US20240050486A1, “METHODS OF GENERATING CORTICAL EXCITATORY NEURONS” (Memorial Sloan-Kettering Cancer Center, priority 2021, published 2024).

Assays:
WNT pathway (Porcupine) = conditions: at the level of the pathway activator Porcupine; read-out: IC50 WNT pathway inhibition

| IC50 (WNT pathway (Porcupine)) | Structure (SMILES) | degradation of β-catenin (SW480 cells) | protein levels of the axin-GSK3β complex (SW480 cells) |
| --- | --- | --- | --- |
| 27 nM | Cc1ccc2nc(NC(=O)CSc3nc4c(c(=O)n3-c3ccccc3)SCC4)sc2c1 [IWP-2, N-(6-methyl-1,3-benzothiazol-2-yl)-2-[(4-oxo-3-phenyl-6,7-dihydrothieno[3,2-d]pyrimidin-2-yl)thio]acetamide] |  |  |
|  | Oc1nc(-c2ccc(C(F)(F)F)cc2)nc2c1CSCC2 [XAV939] | promotes the degradation of β-catenin | increases the protein levels of the axin-GSK3β complex |
